In patent US10203334B2, “Methods and compositions related to nucleic acid binding assays” (Nubad, LLC, priority 2012, dated 2019):
Like-named read-outs stand apart in the source and are kept apart here.

Tests used:
d(GGGGCCCC)2 = experiment: Fluorescein-neomycin fluorescence quenching by DNA duplex; format: binding; details: 1 μM probe, 10 mM SC, 0.5 mM EDTA, pH 6.8
Description: (§1) It has been shown that the fluorescence of a fluorescein-neomycin is quenched when bound to a nucleic acid target. In continued efforts to expand the applications of the fluorescein-neomycin conjugate, a fluorescence quenching study was performed to determine if the quenching of fluorescein-neomycin in the presence of DNA is representative of the neomycin affinity. Previous studies using the duplexes d(GGGGCCCC)2 and d(CCCCGGGG)2 have shown the binding is lower for d(CCCCGGGG)2. This has been shown from the ITC derived binding constants, FID studies, and electrostatic potential studies. […] For this reason the fluorescence quenching of fluorescein-neomycin with d(GGGGCCCC)2 and d(CCCCGGGG)2 was performed at three different buffer salt concentrations. […] Results from this study show here that the fluorescein-neomycin quenching can be applied to screening the 256 GC rich hairpins to identify which sequence neomycin has the highest affinity. Table 2 represents the change in fluorescence (%) values of fluorescein-neomycin with 1rdr d(GGGGCCCC)2 and d(CCCCGGGG)2 in 3 different buffer salt concentrations and the ratio between the change in fluorescence (%) values of F-neo with d(CCCCGGGG)2 compared to d(GGGGCCCC)2. Fluorescein-neomycin=1 μM, Buffer=10 mM SC, 0.5 mM EDTA, and either 50 mM NaCl, 100 mM NaCl, or 150 mM NaCl (pH=6.8). Experiment was performed in triplicate and the results were also polted in FIG. 10 showing the change in fluorescence (%) of fluorescein-neomycin with 1 equivalent d(GGGGCCCC)2 and d(CCCCGGGG)2 in 3 different buffer salt concentrations.

d(CCCCGGGG)2 = experiment: as above; format: binding; details: 1 μM probe, 10 mM SC, 0.5 mM EDTA, pH 6.8
Description: as §1

[1] = system: RNA triplex poly(rA).2poly(rU); experiment: Competition dialysis; format: binding
From the text: (§2) Disclosed is the use of fluorescent aminosugar probes such as F-neo (42a) to probe a variety of nucleic acid targets. Competition dialysis was used as a nucleic acid screening technique to illustrate the binding of F-neo (42a) to different nucleic acid structures.
(§3) Competition dialysis studies using a fluorescein-neomycin conjugate (F-neo (42a)). […] Comparative binding of F-neo (42a) to 13 different nucleic acid structures was examined which included single strand nucleic acids [poly(dT), poly(A), poly(U)], duplexes [poly(dA).poly(dT), poly(rA).poly(dT), poly(rA).poly(rU), poly(dA).poly(rU), poly(dG).poly(dC), calf thymus], triplexes [poly(dA).2poly(dT), poly(rA).2poly(rU)], i-motif (polydC) and 16S A-site rRNA (SEQ ID No. 1). The amount of F-neo (42a) bound to each nucleic acid is shown as a bar graph in FIG. 13. Because all nucleic acids are dialyzed simultaneously in the same ligand solution, the amount of bound F-neo (42a) is directly proportional to its affinity for each nucleic acid. […] 200 μL of different nucleic acids (7.5 μM per monomeric unit of each polymer) was dialyzed for 72 h with 400 mL 100 nM ligand in 6 mM Na2HPO4, 2 mM NaH2PO4, 1 mM Na2EDTA, pH 7.0 and various Na+ concentrations as indicated.
(§4) F-neo (42a) prefers to bind to 16S A-site rRNA yielding a bound ligand concentration of 85 nM in 100 mM Na^+, 50 nM in 150 mM Na^+, and 15 nM in 200 mM Na^+ is shown in FIG. 15.

[2] = system: DNA duplex poly(dA).poly(dT), hybrid duplex poly(rA).poly(dT), calf thymus DNA, i-motif DNA, and all single-stranded nucleic acids; experiment: Competition dialysis; format: binding
From the text: as §2, §3, §4

[3] = pKa of free probe from pH-dependent absorbance spectra; format: physicochemical
Description: The mechanism for change in fluorescence of F-Neo upon binding to A-site rRNA oligonucleotide (SEQ ID No. 1) using UV absorption spectroscopy was investigated. Effect of pH on the absorbance spectra of 3.0 mM fluorescein-neomycin in 20 mM MOPSO, 0.4 mM EDTA, 50 mM NaCl at the indicated pH values were studied.
With increasing pH, fluorescein-neomycin undergoes a transition between mono-anion and di-anion species. Fluorescein-neomycin concentration was 10 μM in 100 mM NaCl, 10 mM SC, 0.5 mM EDTA. As indicated by its absorbance spectra in FIG. 8A, the F-neo transitions from a mono-anion to a di-anion with increasing pH. FIG. 8B compares the absorbance spectra between the mono-anion and di-anion species of fluorescein neomycin. […] The absorbance peak of about 490 nm in FIGS. 8A and 8B is consistent with the phenolate species of fluorescein. The pKa for the equilibrium of the phenol and phenolate forms of F-neo (42a) was measured by evaluating the absorbance spectrum as a function of pH and shown to be 6.84. […] When monitoring the absorption spectrum in the presence of the A-site RNA (SEQ ID No. 1), a reduction in A490 consistent with the change in pKa was observed. […] This shift in pKa causes a change in the fluorescence intensity of F-neo (42a). […]

[4] = 50 mM NaCl, listed as Fluorescein-neomycin
[5] = 50 mM NaCl, listed as fluorescein-neomycin
[6] = 150 mM NaCl, listed as Fluorescein-neomycin
[7] = 150 mM NaCl, listed as fluorescein-neomycin

Compound: NCC1O[C@H](OC2C(O)C(OC3C(O)[C@H](N)CC(N)[C@H]3O[C@H]3OC(CN)[C@@H](O)C(O)C3N)O[C@@H]2CSCCNC(=O)CCSCC(=O)Nc2ccc(-c3c4ccc(=O)cc-4oc4cc(O)ccc34)c(C(=O)O)c2)C(N)C(O)[C@@H]1O (stereo partly shown) [F-neo (42a), Neomycin-Fluorescein Conjugate]
- ΔF (%) with 1rdr d(GGGGCCCC)2 (d(GGGGCCCC)2; [4]): 73.97 ± 5.78%
- ΔF (%) with 1rdr d(GGGGCCCC)2 (d(GGGGCCCC)2; [5]): 73%
- ΔF (%) with 1rdr d(GGGGCCCC)2 (d(GGGGCCCC)2; 100 mM NaCl): 49.28 ± 1.12%
- ΔF (%) with 1rdr d(GGGGCCCC)2 (d(GGGGCCCC)2; [6]): 33.88 ± 3.33%
- ΔF (%) with 1rdr d(GGGGCCCC)2 (d(GGGGCCCC)2; [7]): 33%
- ΔF (%) with 1rdr d(CCCCGGGG)2 (d(CCCCGGGG)2; [4]): 47.75 ± 5.60%
- ΔF (%) with 1rdr d(CCCCGGGG)2 (d(CCCCGGGG)2; [5]): 47%
- ΔF (%) with 1rdr d(CCCCGGGG)2 (d(CCCCGGGG)2; 100 mM NaCl): 32.18 ± 0.42%
- ΔF (%) with 1rdr d(CCCCGGGG)2 (d(CCCCGGGG)2; [6]): 20.36 ± 2.76%
- ΔF (%) with 1rdr d(CCCCGGGG)2 (d(CCCCGGGG)2; [7]): 20%
- bound F-neo (42a) ([1]; 100 mM Na^+): 60 nM
- bound F-neo (42a) ([1]; 150 mM Na^+): 20 nM
- bound F-neo (42a) ([1]; 200 mM Na^+): 5 nM
- binding in competition dialysis [2]: moderate to very weak binding
- pKa ([3]; buffer: 100 mM NaCl, free, 10 μM, 100 mM NaCl, 10 mM SC, 0.5 mM EDTA at 25° C., read-out: pKa): 6.57
- pKa ([3]; free probe, absorbance spectrum as a function of pH, read-out: pKa for the equilibrium of the phenol and phenolate forms): 6.84
